Experiment: excess molar enthalpy (molar enthalpy of mixing); xn = mol fraction of the nth substance listed
Settings: Liquid, Flow calorimetry

CCOC(C)=O [ethyl acetate] + O=C=O
excess molar enthalpy [kcal/mol]
Settings | 298.15 K | 303.15 K | 308.15 K
5000 kPa, x2 = 0.099 | -0.284 | -0.294 | -0.346
5000 kPa, x2 = 0.199 | -0.567 | -0.582 | -0.556
5000 kPa, x2 = 0.3 | -0.837 | -0.87 | -0.839
5000 kPa, x2 = 0.4 | -1.11 | -1.14 | -1.1
5000 kPa, x2 = 0.5 | -1.37 | – | –
6000 kPa, x2 = 0.101 | -0.251 | -0.275 | -0.274
6000 kPa, x2 = 0.2 | -0.512 | -0.535 | -0.543
6000 kPa, x2 = 0.3 | -0.757 | -0.793 | -0.791
6000 kPa, x2 = 0.399 | -0.984 | -1.04 | -1.05
6000 kPa, x2 = 0.5 | -1.21 | -1.27 | –
7000 kPa, x2 = 0.1 | -0.0915 | -0.216 | -0.238
7000 kPa, x2 = 0.2 | -0.167 | -0.432 | -0.473
7000 kPa, x2 = 0.299 | -0.239 | -0.647 | -0.709
7000 kPa, x2 = 0.4 | -0.304 | -0.849 | -0.928
7000 kPa, x2 = 0.5 | – | -1.02 | -1.13
